18 molecules from US20240199649A1 (Biosplice Therapeutics, Inc., priority 2022, published 2024) can be followed below.

Each structure is given as a SMILES string.

In general, IC50 refers to the concentration at which inhibition is half-maximal.

The test deals with recombinant DYRK1A kinase (Homo sapiens (Human), UniProt Q13627). The test is described as follows: DYRK1A kinase assay (Ser/Thr 18 peptide Z-lyte FRET assay). In kind it is biochemical. The conditions noted are these: DYRK1A 0.25 μg/mL, ATP 15 μM, Ser/Thr peptide 18 4 μM; one hour at room temperature; 11-point dose-response, duplicate. Here is the method: Representative compounds were screened using the assay procedure for DYRK1A kinase activity as described below.
Each compound was dissolved in DMSO as a 10 mM stock and used to prepare compound source plates.
This is a non-radioactive assay using fluorescence resonance energy transfer (FRET) between coumarin and fluorescein to detect kinase activity which is represented as a ratio of coumarin emission/fluorescein emission.
The mixture was allowed to incubate with the representative compounds for one hour at room temperature. All reactions were performed in duplicate. Unphosphorylated (“0% Control”) and phosphorylated (“100% control”) forms of Ser/Thr 18 served as control reactions. Additionally, an 11-point dose-response curve of Staurosporine (1 uM top) was run to serve as a positive compound control.
After incubation, Development Reagent A was diluted in Development Buffer then added to the reaction and allowed to further incubate for one hour at room temperature.
Dose-response curves were generated, and inhibitory concentration (IC50) values were calculated using non-linear regression curve fit in the Dotmatics' Studies Software (Bishops Stortford, UK).
With `CNc1nc(N[C@@H]2CCNCC2(F)F)nn2ccc(-c3ccn4nccc4n3)c12` [Compound 339, (R)—N^2-(3,3-Difluoropiperidin-4-yl)-N^4-methyl-5-(pyrazolo[1,5-a]pyrimidin-5-yl)pyrrolo[2,1-f][1,2,4]triazine-2,4-diamine], the IC50 stood at 2.2 nM. For the molecule `CNc1nc(N[C@@H]2CCN(C3COC3)CC2(F)F)nn2ccc(-c3ccc4ncn(CC(F)F)c4n3)c12` [Compound 351, (R)—N^2-(3,3-Difluoro-1-(oxetan-3-yl)piperidin-4-yl)-5-(3-(2,2-difluoroethyl)-3H-imidazo[4,5-b]pyridin-5-yl)-N^4-methylpyrrolo[2,1-f][1,2,4]triazine-2,4-diamine], the concentration for half-maximal inhibition (IC50) worked out at 365 nM.

Turning to `CNc1nc(N[C@H]2C[C@H](C(C)(C)O)C2)nn2ccc(-c3ccc4nc(C)n(CC(F)F)c4n3)c12` [Compound 355, 2-(trans-3-((5-(3-(2,2-Difluoroethyl)-2-methyl-3H-imidazo[4,5-b]pyridin-5-yl)-4-(methylamino)pyrrolo[2,1-f][1,2,4]triazin-2-yl)amino)cyclobutyl)propan-2-ol], the IC50 turned out to be 4.2 nM. On to `CNc1nc(N[C@H]2CN(C)CC2(F)F)nn2ccc(-c3ccc4nc(C)n(CC(F)F)c4n3)c12` [Compound 363, (S)—N^2-(4,4-Difluoro-1-methylpyrrolidin-3-yl)-5-(3-(2,2-difluoroethyl)-2-methyl-3H-imidazo[4,5-b]pyridin-5-yl)-N^4-methylpyrrolo[2,1-f][1,2,4]triazine-2,4-diamine], for which the IC50 was 2.1 nM.

With `CNc1nc(N[C@@H]2CN(C)CC2(F)F)nn2ccc(-c3ccc4nc(C)n(CC(F)F)c4n3)c12` [Compound 364, (R)—N^2-(4,4-Difluoro-1-methylpyrrolidin-3-yl)-5-(3-(2,2-difluoroethyl)-2-methyl-3H-imidazo[4,5-b]pyridin-5-yl)-N^4-methylpyrrolo[2,1-f][1,2,4]triazine-2,4-diamine], the IC50 came out at 0.6 nM. For `CCN1C[C@H](Nc2nc(NC)c3c(-c4ccc5nc(C)n(CC(F)F)c5n4)ccn3n2)C(F)(F)C1` [Compound 365, (S)-5-(3-(2,2-Difluoroethyl)-2-methyl-3H-imidazo[4,5-b]pyridin-5-yl)-N^2-(1-ethyl-4,4-difluoropyrrolidin-3-yl)-N^4-methylpyrrolo[2,1-f][1,2,4]triazine-2,4-diamine], the IC50 is 6.3 nM.

For `CCN1C[C@@H](Nc2nc(NC)c3c(-c4ccc5nc(C)n(CC(F)F)c5n4)ccn3n2)C(F)(F)C1` [Compound 366, (R)-5-(3-(2,2-Difluoroethyl)-2-methyl-3H-imidazo[4,5-b]pyridin-5-yl)-N^2-(1-ethyl-4,4-difluoropyrrolidin-3-yl)-N^4-methylpyrrolo[2,1-f][1,2,4]triazine-2,4-diamine], the IC50 was found to be 1.4 nM. As for `CNc1nc(N[C@H]2CN(C3COC3)CC2(F)F)nn2ccc(-c3ccc4nc(C)n(CC(F)F)c4n3)c12` [Compound 367, (S)—N^2-(4,4-difluoro-1-(oxetan-3-yl)pyrrolidin-3-yl)-5-(3-(2,2-difluoroethyl)-2-methyl-3H-imidazo[4,5-b]pyridin-5-yl)-N^4-methylpyrrolo[2,1-f][1,2,4]triazine-2,4-diamine], the figure is 6.4 nM; as for `CNc1nc(N[C@@H]2CN(C3COC3)CC2(F)F)nn2ccc(-c3ccc4nc(C)n(CC(F)F)c4n3)c12` [Compound 368, (R)—N^2-(4,4-Difluoro-1-(oxetan-3-yl)pyrrolidin-3-yl)-5-(3-(2,2-difluoroethyl)-2-methyl-3H-imidazo[4,5-b]pyridin-5-yl)-N^4-methylpyrrolo[2,1-f][1,2,4]triazine-2,4-diamine], 1.2 nM; as for `CNc1nc(NC2CCN(CCF)CC2)nn2ccc(-c3ccc4nc(C)n(CC(F)F)c4n3)c12` [Compound 369, 5-(3-(2,2-Difluoroethyl)-2-methyl-3H-imidazo[4,5-b]pyridin-5-yl)-N^2-(1-(2-fluoroethyl)piperidin-4-yl)-N^4-methylpyrrolo[2,1-f][1,2,4]triazine-2,4-diamine], 2.9 nM. As for `CNc1nc(NC2CCN(CC(F)(F)F)CC2)nn2ccc(-c3ccc4nc(C)n(CC(F)F)c4n3)c12` [Compound 370, 5-(3-(2,2-Difluoroethyl)-2-methyl-3H-imidazo[4,5-b]pyridin-5-yl)-N^4-methyl-N^2-(1-(2,2,2-trifluoroethyl)piperidin-4-yl)pyrrolo[2,1-f][1,2,4]triazine-2,4-diamine], the IC50 is 15.5 nM.

On to `CNc1nc(NC2CCN(C3CC(F)(F)C3)CC2)nn2ccc(-c3ccc4nc(C)n(CC(F)F)c4n3)c12` [Compound 371, N^2-(1-(3,3-Difluorocyclobutyl)piperidin-4-yl)-5-(3-(2,2-difluoroethyl)-2-methyl-3H-imidazo[4,5-b]pyridin-5-yl)-N^4-methylpyrrolo[2,1-f][1,2,4]triazine-2,4-diamine], for which the half-maximal inhibitory concentration (IC50) is 2.2 nM. Turning to `CCN1CC[C@@H](Nc2nc(NC)c3c(-c4ccc5nc(C)n(CC(F)F)c5n4)ccn3n2)[C@@H](F)C1` [Compound 372, 5-(3-(2,2-Difluoroethyl)-2-methyl-3H-imidazo[4,5-b]pyridin-5-yl)-N^2-((3S,4R)-1-ethyl-3-fluoropiperidin-4-yl)-N^4-methylpyrrolo[2,1-f][1,2,4]triazine-2,4-diamine], the half-inhibitory concentration (IC50) worked out at 5 nM.

For the molecule `CCN1CC[C@H](Nc2nc(NC)c3c(-c4ccc5nc(C)n(CC(F)F)c5n4)ccn3n2)[C@H](F)C1` [Compound 373, 5-(3-(2,2-Difluoroethyl)-2-methyl-3H-imidazo[4,5-b]pyridin-5-yl)-N^2-((3R,4S)-1-ethyl-3-fluoropiperidin-4-yl)-N^4-methylpyrrolo[2,1-f][1,2,4]triazine-2,4-diamine], the IC50 was determined as 3.8 nM. Take `CNc1nc(N[C@@H]2CCN(CCF)C[C@@H]2F)nn2ccc(-c3ccc4nc(C)n(CC(F)F)c4n3)c12` [Compound 374, 5-(3-(2,2-Difluoroethyl)-2-methyl-3H-imidazo[4,5-b]pyridin-5-yl)-N^2-((3S,4R)-3-fluoro-1-(2-fluoroethyl)piperidin-4-yl)-N^4-methylpyrrolo[2,1-f][1,2,4]triazine-2,4-diamine]: the half-maximal inhibitory concentration (IC50) is 2.2 nM. Take `CNc1nc(N[C@H]2CCN(CCF)C[C@H]2F)nn2ccc(-c3ccc4nc(C)n(CC(F)F)c4n3)c12` [Compound 375, 5-(3-(2,2-Difluoroethyl)-2-methyl-3H-imidazo[4,5-b]pyridin-5-yl)-N^2-((3R,4S)-3-fluoro-1-(2-fluoroethyl)piperidin-4-yl)-N^4-methylpyrrolo[2,1-f][1,2,4]triazine-2,4-diamine]: the IC50 was 0.6 nM. Regarding `CNc1nc(N[C@@H]2CCN(C3CC3)C[C@@H]2F)nn2ccc(-c3ccc4nc(C)n(CC(F)F)c4n3)c12` [Compound 377, N^2-((3S,4R)-1-Cyclopropyl-3-fluoropiperidin-4-yl)-5-(3-(2,2-difluoroethyl)-2-methyl-3H-imidazo[4,5-b]pyridin-5-yl)-N^4-methylpyrrolo[2,1-f][1,2,4]triazine-2,4-diamine], the half-maximal inhibitory concentration (IC50) was 3.6 nM. As to `CNc1nc(N[C@H]2CCN(C3CC3)C[C@H]2F)nn2ccc(-c3ccc4nc(C)n(CC(F)F)c4n3)c12` [Compound 378, N^2-((3R,4S)-1-Cyclopropyl-3-fluoropiperidin-4-yl)-5-(3-(2,2-difluoroethyl)-2-methyl-3H-imidazo[4,5-b]pyridin-5-yl)-N^4-methylpyrrolo[2,1-f][1,2,4]triazine-2,4-diamine], the IC50 amounted to 4.1 nM.
